{"source": "patent US11718628B2", "about": "“SREBP inhibitors comprising a 6-membered central ring” (Capulus Therapeutics, LLC, priority 2018, dated 2023)", "key": {"[1]": {"assay": "In vivo pharmacokinetic properties in mice (IV and PO)", "design": "species or system C57BL/6J mice", "details": "mouse, in vivo", "method_in_brief": "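Male C57BL/6J mice received 10 mg/kg orally; plasma sampled by retro-orbital capillary at 0.25–24 h. IV dosing described at 2.00 mg/kg via tail vein, plasma sampled 0.083–24 h.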"}, "HepG2 cells": {"test_system": "HepG2 cells", "assay": "Gene expression of HepG2 cells (quantitative PCR)", "type": "cell-based", "design": "key to LSS gene expression / MVK gene expression / SREBP1 gene expression / SREBP2 gene expression / SCAP gene expression / SCD gene expression / MVD gene expression / ACACA gene expression / ACACB gene expression / ACLY gene expression / ACSS1 gene expression / ACSS2 gene expression / ELOVL6 gene expression / FASN gene expression / HMGCR gene expression: relative expression vs mock/vehicle (ΔΔCT, β-actin normalized)", "details": "500 nM, 48 hrs", "procedure": "Gene Expression: The effect of selected compounds described herein on the gene expression of HepG2 cells was evaluated. HepG2 cells (P2) were seeded in 24 well plate (80,000 cells/well) for RNA extraction and in a 96 well plate (10,000 cells/well) for Cell Titer Glow (CTG). The media used was DMEM and contained 10% FBS. Each compound was evaluated at […] for 48 hours. Two biological replicates per experimental group were evaluated for RNA. For gene analysis, RNA was harvested with RNEasy kit and 20-100 ng used to synthesize cDNA with random primers. Quantitative PCR was performed on 1 pg to 100 ng cDNA for the following genes: ACACA, ACLY, FASN, LSS, PNPLA3. Gene expression levels were normalized with housekeeping gene, β-Actin, and relative expression levels determined using ΔΔCT method comparing treated to mock or vehicle treated cells as a baseline. “Total” gene expression refers to the average of the values of the 5 genes listed above.\nThe effect of Compound Z-725 on expression of the genes ACACA, ACACB, ACLY, ACSS1, ACSS2, ELOVL6, FASN, HMGCR, LSS, MVK, PNPLA3, SREBP1, SREBP2, SCAP, SCD, and MVD was evaluated, following the procedure described in Example 52."}, "[2]": {"assay": "In vivo pharmacokinetic properties in rats (IV and PO)", "design": "species or system male Sprague Dawley rats", "method_in_brief": "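Male Sprague Dawley rats received 2.00 mg/kg IV via the tail vein, with plasma sampled from a cannulated jugular vein from 0.083 to 24 h. Oral dosing was 10 mg/kg in rats or C57BL/6J mice, sampled at 0.25-24 h by jugular cannula (rats) or retro-orbital plexus (mice).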"}}}
{"smiles": "CC(C)(C)c1cc(-c2cncc(-c3ccc(C(=O)N4CCC(O)CC4)cc3Cl)c2)ccn1", "note": "[Compound Z-725]", "values": [{"measurement": "% F (Bioavailability of oral delivery)", "setting": "[1]", "result": 58, "unit": "%"}, {"measurement": "Intravenous Delivery (IV) AUC0-last", "setting": "[1]; iv, 2 mg/kg", "result": 1900, "unit": "ng·h/mL"}, {"measurement": "Intravenous Delivery (IV) CL", "setting": "[1]; iv, 2 mg/kg", "result": 17.5, "unit": "mL/min/kg"}, {"measurement": "Intravenous Delivery (IV) T1/2", "setting": "[1]; iv, 2 mg/kg", "result": 3.39, "unit": "h"}, {"measurement": "Intravenous Delivery (IV) Vd", "setting": "[1]; iv, 2 mg/kg", "result": 5.13, "unit": "L/kg"}, {"measurement": "Oral Administration (PO) AUC0-last", "setting": "[1]; po, 10 mg/kg", "result": 5400, "unit": "ng·h/mL"}, {"measurement": "Oral Administration (PO) T1/2", "setting": "[1]; po, 10 mg/kg", "result": 4.72, "unit": "h"}, {"measurement": "Oral Administration (PO) Tmax", "setting": "[1]; po, 10 mg/kg", "result": 1, "unit": "h"}, {"measurement": "ACACA gene expression", "setting": "HepG2 cells", "result": 0.4399}, {"measurement": "ACACB gene expression", "setting": "HepG2 cells", "result": 0.5472}, {"measurement": "ACLY gene expression", "setting": "HepG2 cells", "result": 0.3505}, {"measurement": "ACSS1 gene expression", "setting": "HepG2 cells", "result": 0.2838}, {"measurement": "ACSS2 gene expression", "setting": "HepG2 cells", "result": 0.4792}, {"measurement": "ELOVL6 gene expression", "setting": "HepG2 cells", "result": 0.4432}, {"measurement": "FASN gene expression", "setting": "HepG2 cells", "result": 0.2957}, {"measurement": "HMGCR gene expression", "setting": "HepG2 cells", "result": 0.09282}, {"measurement": "LSS gene expression", "setting": "HepG2 cells", "result": 0.2412}, {"measurement": "MVD gene expression", "setting": "HepG2 cells", "result": 0.1984}, {"measurement": "MVK gene expression", "setting": "HepG2 cells", "result": 0.05926}, {"measurement": "PNPLA3 gene expression", "setting": "HepG2 cells", "result": 0.09989}, {"measurement": "SCAP gene expression", "setting": "HepG2 cells", "result": 1.312}, {"measurement": "SCD gene expression", "setting": "HepG2 cells", "result": 0.2009}, {"measurement": "SREBP1 gene expression", "setting": "HepG2 cells", "result": 0.5489}, {"measurement": "SREBP2 gene expression", "setting": "HepG2 cells", "result": 0.786}, {"measurement": "Intravenous Delivery (IV) CL", "setting": "[2]; IV, 2 mg/kg", "result": 30.1, "unit": "mL/min/kg"}, {"measurement": "Intravenous Delivery (IV) T1/2", "setting": "[2]; IV, 2 mg/kg", "result": 1.53, "unit": "h"}, {"measurement": "Intravenous Delivery (IV) Vd", "setting": "[2]; IV, 2 mg/kg", "result": 4.02, "unit": "L/kg"}, {"measurement": "% F (Bioavailability of oral delivery)", "setting": "[2]; PO 10 mg/kg vs IV 2 mg/kg", "result": 24, "unit": "%"}, {"measurement": "Oral Administration (PO) AUC0-last", "setting": "[2]; PO, 10 mg/kg", "result": 1307}, {"measurement": "Oral Administration (PO) T1/2", "setting": "[2]; PO, 10 mg/kg", "result": 5.1, "unit": "h"}, {"measurement": "Oral Administration (PO) Tmax", "setting": "[2]; PO, 10 mg/kg", "result": 1.67, "unit": "h"}]}
